In test [1] the test system is CCL2 release from IL-4, IL-13, IL-22 and IFN-γ-stimulated primary human keratinocytes. Briefly: Keratinocyte CCL2 release (LEO Pharma Open Innovation assay number 1280). The format is cell-based. Conditions: for EC50 / Emax: Homo sapiens, Keratinocyte; for Max Eff.: CCL2 (1280): highest effect as percentage of control maximum effect; for Emax: read-out: maximum efficacy, CCL2 secretion. The method, then: Inhibition of CCL2 release from IL-4, IL-13, IL-22 and IFN-γ-stimulated primary human keratinocytes LEO Pharma Open Innovation assay number 1280
The inflammatory skin disease atopic dermatitis (AD) is characterized by the T-cell cytokines including IL-4, IL-13, IL-22 and IFN-γ. In the present assay, keratinocytes are stimulated with a mixture of these cytokines, and the release of CCL2 (also called monocyte chemoattractant protein 1 (MCP-1)) is measured in the culture supernatant by proximity homogenous time-resolved fluorescence (HTRF). […] Compound which inhibit keratinocyte CCL2 secretion may be expected to have efficacy in atopic dermatitis.
HEKa are human epidermal keratinocytes isolated from adult skin. The cells have been cryopreserved at the end of the primary culture stage in a medium containing 10% DMSO. Sterile cell culture work applies.
• Trypsinize the cells as described above. • Resuspend pellet in 10 ml assay medium (EpiLife Medium with HKGS Kit but without hydrocortisone) • Filter the cells though a 37 µm strainer. • Count cells using a cell counter. • Seed HEKa cells in 384-well view plates 3500 c/w/40 μL. • Place the plates with lids on in a humidity chamber with lid (24.5×24.5 cm box added H2O in the bottom). • Incubate plates over night at 37° C., 5% CO2/95% air
• Prepare compound-containing source plate, i.e. titrations in DMSO to be transferred to the assay plate. • Add 80 nL compounds and controls from the source plate to the assay plate (with cells). • Add 40 μL stimulation (recombinant human interleukin (IL) 4, 13, 22 at 10 ng/mL and Interferon-gamma at 1 ng/mL) in medium with supplement, but without hydrocortisone. • Incubate plates at 37° C., 5% CO2/95% air for 2 days.
• Remove plates from incubation and equilibrate to room temperature for 30 minutes. • Transfer […] supernatant to white proxi 384-well plates for CCL2 detection. • Add […] media to the detection plate. • Add […] CCL2 HTRF detection reagent (to the white proxi 384w). • Seal and incubate for 4 hours and read in a plate reader.
CCL2 concentration in the supernatants is measured using homogeneous time-resolved fluorescence resonance (TR-FRET). The assay is quantified by measuring fluorescence at 665 nm (proportional to CCL2 concentration) and 620 nm (control). A ratio 665/620*1000 is calculated.

The test system of test [2] is IL-17A secretion from human PBMC stimulated with antiCD3/antiCD28-coated beads. Briefly: PBMC IL-17 assay (assay number 1321). The format is cell-based. The following applies: for Max Eff.: IL-17 (1321): highest effect as percentage of control maximum effect. The procedure: Inhibition of IL-17A secretion from human PBMC stimulated with antiCD3/antiCD28-coated beads. LEO Pharma Open Innovation assay number 1321
The inflammatory skin disease psoriasis is characterized by cytokines IL-17A and TNFα. In the present assay, human peripheral blood mononuclear cells (PBMC) are stimulated with beads coated with antibodies against CD3 and CD28 to activate the T-cell receptor, and stimulated with IL-23 to promote T-helper17 activity. The cells are incubated for three days, then the secreted level of IL-17A is measured in the culture supernatant using AlphaLISA and the amount of living cells is measured by addition of resazurin (PrestoBlue®) to identify compounds that inhibit cell proliferation or viability. […] Compounds which inhibit IL-17A secretion may be expected to have efficacy in psoriasis.
• PBMC are isolated from fresh human buffy coats by centrifugation on Lymphoprep® following instructions from Sebmate® • Cells are spun down and resuspended in freezing medium (RPMI1640+20% FBS+5% DMSO) • Cells are frozen in aliquots of 8×10^7 cells/vial matching one 384 plate. Cells are placed in Coolcell box and placed in −80° C. freezer for one day. Vials are moved to the −150° C. freezer in a prechilled box.
• Prepare assay medium: RPMI1640+10% heat inactivated FBS and 1% pen/strep, supplemented with human IL-23, 20 ng/mL (R&D systems, cat no 1290-IL-010) • Test compounds: Prepare compound-containing source plate, i.e. titrations in DMSO to be transferred to the assay plate. • Add 70 nL compounds and controls from the source plate to the assay plate. • Thaw the cells by adding 1 vial to 20 ml warm assay medium • Centrifuge the cells down at 170 G in 10 minutes, remove the supernatant and resuspend in new medium. • Filter the cells though a 37 µm strainer. • Count the cells in the cell counter. • Beads (T Cell Activation/Expansion Kit-human, Miltenyi Biotech, cat. no. 130-091-441): Coat beads with antibodies (antiCD3 and antiCD28) according to the kit procedure. • Add the beads to the cells, one bead per cell, 2.1e+06 cells/ml. Use a pipette to mix the cells and beads carefully. • Seed the cell/bead mixture into the assay plate, 70 μL/well ([…]) • Place the plates in a humidity chamber with lid (24.5×24.5 cm box added H2O in the bottom). • Incubate plates at 37° C., 5% CO2/95% air for 3 days.
• IL-17A concentration in the supernatants is measured using an alphaLISA kit (Perkin Elmer, cat no. AL219F). • Pretest to find optima dilution of samples: Test 5 μL supernatant from control wells and run IL-17A alphaLISA assay with only 2 hours of incubation. • When data are available, remove assay plates from incubation and equilibrate to room temperature for 30 minutes. • Transfer 5 μL or corrected amounts of supernatant to a 384-proxy plate • Add 5 μL alphaLISA acceptor beads. • Incubate 1 hour at room temperature • Add 5 μL donor beads • Incubate overnight at room temperature protected from light. • Add 7 μL PrestoBlue reagent (resazurin)/well to the assay plate and incubated for 2-4 hours at 37° C./5% CO2. The fluorescence in the wells is measured (Ex615/Em 535).
IL-17A concentration in the supernatants is measured using an alphaLISA kit (Perkin Elmer, cat no. AL219F).
The capacity of the test compound to inhibit IL-17A release is normalized to the signal in the negative control wells treated with a toxic compound, Terfenadine.

[3] abbreviates: half maximal effective concentration relative to control, inhibition of CCL2 release, keratinocytes, read-out: Abs EC50: CCL2 (1280).
Setting [4] is: inhibition of IL-17A secretion, human PBMC, read-out: Abs EC50: IL-17 (1321).
Setting [5] is: read-out: EC50, inhibition of keratinocyte CCL2 secretion.

Read-outs that look alike come from different tables or passages of the source.

The term EC50 denotes the concentration that produces a half-maximal response. `COc1cc(/C=C/c2cc(O)cc(OC)c2CC=C(C)C)ccc1O` [Compound 1, (E)-3-(4-hydroxy-3-methoxystyryl)-5-methoxy-4-(3-methylbut-2-en-1-yl)phenol]: the EC50 in test [1] (setting [3]) came to 123 nM; in test [2] (setting [4]) it was 4430 nM. Besides, in test [1], the “Max Eff.: CCL2 (1280)” value was determined as 101%. Further, the “Max Eff.: IL-17 (1321)” value in test [2] was 54%.
Taken in the same sequence, the figures for `CCOc1cc(O)cc(/C=C/c2ccc(O)c(OC)c2)c1CC=C(C)C` [Compound 8, (E)-3-Ethoxy-5-(4-hydroxy-3-methoxystyryl)-4-(3-methylbut-2-en-1-yl)phenol] were 50 nM, 1550 nM, 102% and 69%.
The corresponding values for `CCOc1cc(O)cc(/C=C/c2ccc(O)c(O)c2)c1CC=C(C)C` [Compound 20, (E)-4-(3-Ethoxy-5-hydroxy-2-(3-methylbut-2-en-1-yl)styryl)benzene-1,2-diol] are 108 nM, 1650 nM, 99% and 85%.
Take `COc1cc(/C=C/c2cc(O)cc(OC)c2CC=C(C)C)ccc1NC=O` [Compound 27, (E)-N-(4-(5-hydroxy-3-methoxy-2-(3-methylbut-2-en-1-yl)styryl)-2-methoxyphenyl)formamide]: the half-maximal effective concentration (EC50) in test [1] (setting [3]) turned out to be 32 nM. In test [1] (setting [5]), the EC50 is 32 nM. For the same compound, in test [1], the Emax amounted to 100% and the “Max Eff.: CCL2 (1280)” value was 100%. In test [2], the “reduction of IL-17A release, in words” value was “significantly less effective” and the “Max Eff.: IL-17 (1321)” value was 65%. Besides, the EC50 in test [2] (setting [4]) stood at 2120 nM.
For the compound `CCOc1cc(O)cc(/C=C/c2ccc(NC=O)c(OC)c2)c1CC=C(C)C` [Compound 28, (E)-N-(4-(3-Ethoxy-5-hydroxy-2-(3-methylbut-2-en-1-yl)styryl)-2-methoxyphenyl)formamide], in test [1], the “reduction of CCL2 release, in words” value is “medium potency reduction of CCL2 release”. Further, the EC50 in test [1] (setting [3]) is 40 nM; in test [1] (setting [5]), 40 nM; in test [2] (Homo sapiens, PBMC, read-out: EC50, inhibition of IL-17A secretion), 526 nM; in test [2] (setting [4]) it was 526 nM. The Emax came to 100% in test [1] and 73% in test [2] (Homo sapiens, PBMC, read-out: maximum efficacy, IL-17A secretion). For the same compound, in test [1], the “Max Eff.: CCL2 (1280)” value turned out to be 100%. For the same compound, the “reduction of IL-17A release, in words” value in test [2] is reported as “low potency reduction of IL-17A release”. The “Max Eff.: IL-17 (1321)” value in test [2] was 73%.
Turning to `COc1cc(/C=C/c2cc(O)cc(OC)c2CC=C(C)C)ccc1NC(=O)CN` [Compound 31, (E)-2-amino-N-(4-(5-hydroxy-3-methoxy-2-(3-methylbut-2-en-1-yl)styryl)-2-methoxyphenyl)acetamide], the concentration giving a half-maximal response (EC50) in test [1] (setting [3]) stood at 445 nM; in test [2] (setting [4]), 4870 nM. Also, the “Max Eff.: CCL2 (1280)” value in test [1] is recorded as 100%. In test [2], the “Max Eff.: IL-17 (1321)” value is 53%.
Taken in the same sequence, the figures for `CCOc1cc(O)cc(/C=C/c2ccc(NC(=O)C(=O)O)c(OC)c2)c1CC=C(C)C` [Compound 35, (E)-2-((4-(3-Ethoxy-5-hydroxy-2-(3-methylbut-2-en-1-yl)styryl)-2-methoxyphenyl)amino)-2-oxoacetic acid] were 1130 nM, 5000 nM, 79% and 19%.
